Converted amounts (≈) assume the structure as drawn.
Assays:
Plasma [1] = experiment: In vivo stability in C57Bl/6 mouse plasma assessed as compound hydrolysis by measuring platensic acid level at 10 mg/kg, iv administered as single dose measured after 60 mins by LC-MS/MS analysis relative to platensimycin; type: ADME, organism-based; conditions: 1 h
Liver [2] = experiment: In vivo stability in C57Bl/6 mouse liver assessed as compound hydrolysis by measuring platensic acid level at 10 mg/kg, iv administered as single dose measured after 60 mins by LC-MS/MS analysis relative to platensimycin; type: ADME, organism-based; conditions: 1 h
[3] = Ratio of drug level in C57Bl/6 mouse adipose tissue to plasma at 10 mg/kg, iv administered as single dose measured after 60 mins by LC-MS/MS analysis; type: ADME, organism-based
[4] = Drug level in C57Bl/6 mouse urine at 10 mg/kg, iv administered as single dose measured after 60 mins by LC-MS/MS analysis; type: ADME, organism-based; conditions: mouse, in vivo, 1 h
Plasma [5] = experiment: In vivo stability in C57Bl/6 mouse plasma assessed as compound hydrolysis at 10 mg/kg, iv administered as single dose measured after 60 mins by LC-MS/MS analysis; type: ADME, organism-based; conditions: 1 h
Mus musculus [6] = experiment: AUC (0 to 8 hrs) in C57Bl/6 mouse at 3 mg/kg, iv administered as single dose by LC-MS/MS analysis; type: ADME, organism-based; parameters: dose 3 mg/kg, time < 8 hr, route intravenous; conditions: in vivo
[7] = Ratio of drug level in C57Bl/6 mouse lung to plasma at 10 mg/kg, iv administered as single dose measured after 60 mins by LC-MS/MS analysis; type: ADME, organism-based
[8] = In vivo stability in C57Bl/6 mouse urine assessed as compound hydrolysis by measuring platensic acid level at 10 mg/kg, iv administered as single dose measured after 60 mins by LC-MS/MS analysis relative to platensimycin; type: ADME, organism-based; conditions: 1 h
[9] = Volume of distribution in C57Bl/6 mouse at 3 mg/kg, iv administered as single dose by LC-MS/MS analysis; type: ADME, organism-based; conditions: in vivo
[10] = Drug metabolism in mouse hepatic microsomes assessed as amide hydrolysis-mediated platensic acid formation at 1 uM up to 60 mins in presence of NADPH by LC-MS/MS analysis; type: ADME, Liver, Microsome; conditions: 1 h
[11] = In vivo stability in C57Bl/6 mouse muscle assessed as compound hydrolysis at 10 mg/kg, iv administered as single dose measured after 60 mins by LC-MS/MS analysis; type: ADME, organism-based, Muscle tissue; conditions: 1 h
Brain [12] = experiment: In vivo stability in C57Bl/6 mouse brain assessed as compound hydrolysis at 10 mg/kg, iv administered as single dose measured after 60 mins by LC-MS/MS analysis; type: ADME, organism-based; conditions: 1 h
Liver [13] = experiment: Drug uptake in C57Bl/6 mouse liver at 10 mg/kg, iv administered as single dose measured after 60 mins by LC-MS/MS analysis; type: ADME, organism-based; conditions: in vivo, 1 h
Kidney [14] = experiment: In vivo stability in C57Bl/6 mouse kidney assessed as compound hydrolysis by measuring platensic acid level at 10 mg/kg, iv administered as single dose measured after 60 mins by LC-MS/MS analysis relative to platensimycin; type: ADME, organism-based; conditions: 1 h
[15] = Ratio of drug level in C57Bl/6 mouse kidney to plasma at 10 mg/kg, iv administered as single dose measured after 60 mins by LC-MS/MS analysis; type: ADME, organism-based
[16] = Elimination half life in C57Bl/6 mouse at 10 mg/kg, po administered as single dose via gavage by LC-MS/MS analysis; type: ADME, organism-based; conditions: in vivo, read-out: beta t1/2 (converted)
[17] = Ratio of drug level in C57Bl/6 mouse liver to plasma at 10 mg/kg, iv administered as single dose measured after 60 mins by LC-MS/MS analysis; type: ADME, organism-based
[18] = Cmax in C57Bl/6 mouse at 10 mg/kg, po administered as single dose via gavage by LC-MS/MS analysis; type: ADME, organism-based; parameters: dose 10 mg/kg, route oral; conditions: in vivo
Micrococcus luteus = experiment: Antibacterial activity against Micrococcus luteus ATCC 9431 after 18 hrs by broth dilution method; type: functional; conditions: ATCC 9431, 18 h
[19] = Observed clearance in C57Bl/6 mouse at 3 mg/kg, iv administered as single dose by LC-MS/MS analysis; type: ADME, organism-based; conditions: in vivo
[20] = Plasma concentration in C57Bl/6 mouse at 3 mg/kg, iv administered as single dose measured after 2 hrs by LC-MS/MS analysis; type: ADME, organism-based
[21] = Drug metabolism in mouse hepatic microsomes assessed as hydroxylation at 1 uM up to 60 mins in absence of NADPH by LC-MS/MS analysis; type: ADME, Liver, Microsome; conditions: 1 h
[22] = Oral bioavailability in C57Bl/6 mouse at 10 mg/kg administered as single dose via gavage by LC-MS/MS analysis; type: ADME, organism-based; conditions: in vivo
Kidney [23] = experiment: Drug uptake in C57Bl/6 mouse kidney at 10 mg/kg, iv administered as single dose measured after 60 mins by LC-MS/MS analysis; type: ADME, organism-based; conditions: in vivo, 1 h
[24] = Drug uptake in C57Bl/6 mouse adipose tissue at 10 mg/kg, iv administered as single dose measured after 60 mins by LC-MS/MS analysis; type: ADME, organism-based; conditions: in vivo, 1 h
Kidney [25] = experiment: In vivo stability in C57Bl/6 mouse kidney assessed as compound hydrolysis at 10 mg/kg, iv administered as single dose measured after 60 mins by LC-MS/MS analysis; type: ADME, organism-based; conditions: 1 h
[26] = Ratio of drug level in C57Bl/6 mouse muscle to plasma at 10 mg/kg, iv administered as single dose measured after 60 mins by LC-MS/MS analysis; type: ADME, organism-based, Muscle tissue/plasma
Liver [27] = experiment: In vivo stability in C57Bl/6 mouse liver assessed as compound hydrolysis at 10 mg/kg, iv administered as single dose measured after 60 mins by LC-MS/MS analysis; type: ADME, organism-based; conditions: 1 h
[28] = In vivo stability in C57Bl/6 mouse urine assessed as compound hydrolysis at 10 mg/kg, iv administered as single dose measured after 60 mins by LC-MS/MS analysis; type: ADME, organism-based; conditions: 1 h
Lung [29] = experiment: Drug uptake in C57Bl/6 mouse lung at 10 mg/kg, iv administered as single dose measured after 60 mins by LC-MS/MS analysis; type: ADME, organism-based; conditions: in vivo, 1 h
Lung [30] = experiment: In vivo stability in C57Bl/6 mouse lung assessed as compound hydrolysis at 10 mg/kg, iv administered as single dose measured after 60 mins by LC-MS/MS analysis; type: ADME, organism-based; conditions: 1 h
[31] = In vivo stability in C57Bl/6 mouse adipose tissue assessed as compound hydrolysis at 10 mg/kg, iv administered as single dose measured after 60 mins by LC-MS/MS analysis; type: ADME, organism-based; conditions: 1 h
[32] = Drug metabolism in mouse hepatic microsomes assessed as amide hydrolysis-mediated platensic acid formation at 1 uM up to 60 mins in absence of NADPH by LC-MS/MS analysis; type: ADME, Liver, Microsome; conditions: 1 h
Brain [33] = experiment: Drug uptake in C57Bl/6 mouse brain at 10 mg/kg, iv administered as single dose measured after 60 mins by LC-MS/MS analysis; type: ADME, organism-based; conditions: in vivo, 1 h
[34] = Apparent permeability by PAMPA; type: physicochemical
Mus musculus [35] = experiment: AUC (0 to 8 hrs) in C57Bl/6 mouse at 10 mg/kg, po administered as single dose via gavage by LC-MS/MS analysis; type: ADME, organism-based; parameters: time < 8 hr, dose 10 mg/kg, route oral; conditions: in vivo
[36] = Elimination half life in C57Bl/6 mouse at 3 mg/kg, iv administered as single dose by LC-MS/MS analysis; type: ADME, organism-based; conditions: in vivo, read-out: beta t1/2 (converted)
[37] = Intrinsic clearance in mouse hepatic microsomes at 1 uM up to 60 mins by LC-MS/MS analysis; type: ADME, Microsome; conditions: liver microsomes, read-out: CLH
Plasma [38] = experiment: Drug uptake in C57Bl/6 mouse plasma at 10 mg/kg, iv administered as single dose measured after 60 mins by LC-MS/MS analysis; type: ADME, organism-based; conditions: in vivo, 1 h
[39] = Cmax in C57Bl/6 mouse at 3 mg/kg, iv administered as single dose by LC-MS/MS analysis; type: ADME, organism-based; parameters: dose 3 mg/kg, route intravenous; conditions: in vivo
Staphylococcus aureus = experiment: Antibacterial activity against Staphylococcus aureus ATCC 25923 after 18 hrs by broth dilution method; type: functional; conditions: ATCC 25923, 18 h
[40] = Ratio of drug level in C57Bl/6 mouse urine to plasma at 10 mg/kg, iv administered as single dose measured after 60 mins by LC-MS/MS analysis; type: ADME, organism-based; conditions: in vivo, 1 h
[41] = Drug metabolism in mouse hepatic microsomes assessed as glucuronidation of carboxylic acid at 1 uM up to 60 mins in absence of NADPH by LC-MS/MS analysis; type: ADME, Liver, Microsome; conditions: 1 h
[42] = Drug uptake in C57Bl/6 mouse muscle at 10 mg/kg, iv administered as single dose measured after 60 mins by LC-MS/MS analysis; type: ADME, organism-based, Muscle tissue; conditions: in vivo, 1 h

With `C[C@]12C[C@@]34C=CC(=O)[C@@](C)(CCC(=O)Nc5c(O)ccc(C(=O)O)c5O)[C@@H]3[C@H](C[C@@H]1C4)O2` as the molecule, how does the “fold change (FC)” value (Plasma [1]) read?
The value was 0.1.

What about the “fold change (FC)” value (Liver [2]) of the same molecule?
Its value is 0.04.

And the Kp at 1 h [3]?
The Kp at 1 h was 0.1.

What about the Drug uptake [4] of the same molecule?
The Drug uptake was “Active”.

What about the Stability (Plasma [5]) of the same molecule?
The Stability was “Unstable”.

And the AUC (Mus musculus [6])?
The AUC was 10 µM·h.

And the Kp at 1 h [7]?
Its Kp at 1 h is 0.5.

And the “fold change (FC)” value [8]?
Its value is 0.0005.

What about the Vd [9] of the same molecule?
Its Vd is 0.9 L/kg.

And the Drug metabolism [10]?
Its Drug metabolism is “Metabolite_Detected”.

What about the Stability [11] of the same molecule?
Its Stability is “Stable”.

And the Stability (Brain [12])?
Its Stability is “Stable”.

And the Drug uptake (Liver [13])?
The Drug uptake was “Active”.

What about the “fold change (FC)” value (Kidney [14]) of the same molecule?
Its value is 0.2.

What about the Kp at 1 h [15] of the same molecule?
Its Kp at 1 h is 0.5.

What about the half-life [16] of the same molecule?
Its half-life is 3.2 h.

And the Kp at 1 h [17]?
Its Kp at 1 h is 6.2.

And the Cmax [18]?
Its Cmax is 2.1 µM.

What about the MIC (Micrococcus luteus) of the same molecule?
The MIC was 0.5 mg/L (≈ 1.13 µM).

What about the clearance [19] of the same molecule?
Its clearance is 0.96 L/h/kg.

What about the concentration at 2 h [20] of the same molecule?
Its concentration at 2 h is 0.01 µM.

What about the Drug metabolism [21] of the same molecule?
The Drug metabolism was “Metabolite_Detected”.

And the bioavailability [22]?
Its bioavailability is 4.4%.

And the Drug uptake (Kidney [23])?
Its Drug uptake is “Active”.

What about the Drug uptake [24] of the same molecule?
The Drug uptake was “Active”.

What about the Stability (Kidney [25]) of the same molecule?
Its Stability is “Unstable”.

And the Kp at 1 h [26]?
The Kp at 1 h was 0.1.

And the Stability (Liver [27])?
The Stability was “Unstable”.

What about the Stability [28] of the same molecule?
Its Stability is “Unstable”.

What about the Drug uptake (Lung [29]) of the same molecule?
The Drug uptake was “Active”.

And the Stability (Lung [30])?
Its Stability is “Stable”.

And the Stability [31]?
The Stability was “Stable”.

What about the Drug metabolism [32] of the same molecule?
Its Drug metabolism is “Metabolite_Detected”.

What about the Drug uptake (Brain [33]) of the same molecule?
Its Drug uptake is “Not Active”.

And the Papp [34]?
Its Papp is 1.3 ×10⁻⁷ cm/s.

What about the AUC (Mus musculus [35]) of the same molecule?
Its AUC is 1.5 µM·h.

What about the half-life [36] of the same molecule?
Its half-life is 3.5 h.

And the microsomal CLint at 1 µM [37]?
The microsomal CLint at 1 µM was 13.6 µL/min/mg.

What about the Drug uptake (Plasma [38]) of the same molecule?
Its Drug uptake is “Active”.

And the Cmax [39]?
The Cmax was 20 µM.

And the MIC (Staphylococcus aureus)?
The MIC was 0.5 mg/L (≈ 1.13 µM).

And the Ratio [40]?
The Ratio was 3790.

And the Drug metabolism [41]?
The Drug metabolism was “Metabolite_Detected”.

And the Drug uptake [42]?
Its Drug uptake is “Active”.
